We go through 19 molecules from US9796711B2, “Substituted pyrazolo[3,4-b]pyridin-6-carboxylic acids and method of use” (AbbVie S.àr.l., priority 2015, dated 2017).

Test [1] has as its target T1, ΔF508-CFTR (Homo sapiens, UniProt P13569, DEL508-508).
T1 construct: host or cells: CFBE41o-, doxycycline-inducible
Kind of test: CFTR cell surface levels using HRP-tagged ΔF508-CFTR expressing CFBE cells, in the presence of a co-corrector. Format: cell-based. In outline: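 Cells were seeded with 0.5 μg/mL doxycycline and held 68 h at 37 °C. Test compounds plus 3 μM co-corrector (final 0.1% DMSO) were then added for 20 h at 33 °C. Washed cells received HRP substrate, and luminescence was normalized between DMSO and 3 μM co-corrector controls.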

Test [2] concerns the target T1, ΔF508-CFTR. The test is described as follows: CFTR cell surface levels using HRP-tagged ΔF508-CFTR expressing CFBE cells, intrinsic corrector capacity. In kind it is cell-based. In outline:
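Here the cells express ΔF508-CFTR with horseradish peroxidase inserted in extracellular loop 4, so only rescued channel at the surface gives luminescent signal. Compounds act on their own, 20 h at the reduced temperature of 33 °C; values are percent activity relative to DMSO and a 3 μM corrector.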

Where [3] appears, read: HRP-tagged ΔF508-CFTR expressing CFBE cells, in the presence of 3 μM co-corrector.
The mark [4] stands for this setting: HRP-tagged ΔF508-CFTR expressing CFBE cells, in the presence of 3 μM co-corrector, read-out: EC50.
[5] abbreviates: HRP-tagged ΔF508-CFTR CFBE41o- cells, compounds alone (intrinsic corrector capacity), 20 hours at 33° C., positive control 3 μM corrector.
Where [6] appears, read: HRP-tagged ΔF508-CFTR CFBE41o- cells, compounds alone (intrinsic corrector capacity), 20 hours at 33° C., read-out: EC50.
[7] abbreviates: HRP-tagged ΔF508-CFTR expressing CFBE cells, intrinsic corrector capacity (no co-corrector), 33° C., 20 hours.
[8] abbreviates: HRP-tagged ΔF508-CFTR expressing CFBE cells, intrinsic corrector capacity (no co-corrector), 33° C., 20 hours, read-out: EC50.

T1 sequence (P13569 with tags, fused parts or gaps DEL508-508): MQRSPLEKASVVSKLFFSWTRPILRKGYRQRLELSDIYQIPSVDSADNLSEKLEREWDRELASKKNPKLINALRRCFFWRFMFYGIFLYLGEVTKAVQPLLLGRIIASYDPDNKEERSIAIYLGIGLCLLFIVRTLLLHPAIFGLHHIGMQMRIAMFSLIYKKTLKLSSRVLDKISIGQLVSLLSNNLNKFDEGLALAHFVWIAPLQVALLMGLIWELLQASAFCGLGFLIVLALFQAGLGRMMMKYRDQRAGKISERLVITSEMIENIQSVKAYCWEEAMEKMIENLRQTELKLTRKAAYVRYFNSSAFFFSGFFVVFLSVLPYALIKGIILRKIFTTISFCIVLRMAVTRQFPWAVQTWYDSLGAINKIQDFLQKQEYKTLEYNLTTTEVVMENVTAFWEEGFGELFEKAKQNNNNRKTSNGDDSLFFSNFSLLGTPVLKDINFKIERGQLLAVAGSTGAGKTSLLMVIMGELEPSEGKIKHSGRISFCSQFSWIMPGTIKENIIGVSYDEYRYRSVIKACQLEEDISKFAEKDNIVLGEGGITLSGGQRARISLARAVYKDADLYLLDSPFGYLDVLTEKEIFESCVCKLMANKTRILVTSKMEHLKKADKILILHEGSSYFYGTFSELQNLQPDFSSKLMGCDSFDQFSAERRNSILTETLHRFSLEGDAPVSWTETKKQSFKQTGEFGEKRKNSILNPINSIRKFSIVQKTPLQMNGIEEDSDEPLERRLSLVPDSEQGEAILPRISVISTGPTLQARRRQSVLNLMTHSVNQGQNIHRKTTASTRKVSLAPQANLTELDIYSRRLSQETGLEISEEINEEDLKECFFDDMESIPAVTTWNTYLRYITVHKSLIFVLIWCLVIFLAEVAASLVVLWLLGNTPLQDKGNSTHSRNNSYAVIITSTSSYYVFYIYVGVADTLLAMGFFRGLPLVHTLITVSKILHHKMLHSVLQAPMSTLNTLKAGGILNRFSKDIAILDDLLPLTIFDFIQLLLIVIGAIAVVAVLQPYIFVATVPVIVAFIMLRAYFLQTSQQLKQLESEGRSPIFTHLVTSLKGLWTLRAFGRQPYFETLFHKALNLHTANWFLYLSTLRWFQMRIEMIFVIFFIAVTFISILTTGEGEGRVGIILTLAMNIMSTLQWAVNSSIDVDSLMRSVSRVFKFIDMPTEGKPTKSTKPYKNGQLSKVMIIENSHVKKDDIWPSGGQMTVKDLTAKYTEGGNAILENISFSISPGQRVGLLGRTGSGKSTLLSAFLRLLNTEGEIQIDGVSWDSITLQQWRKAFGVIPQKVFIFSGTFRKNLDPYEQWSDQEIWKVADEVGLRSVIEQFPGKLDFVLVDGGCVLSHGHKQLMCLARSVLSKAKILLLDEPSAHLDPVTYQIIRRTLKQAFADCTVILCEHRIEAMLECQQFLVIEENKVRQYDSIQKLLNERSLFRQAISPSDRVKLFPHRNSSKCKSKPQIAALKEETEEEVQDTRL

The EC50 is the concentration giving half of the maximal effect. For the molecule `Cc1nn(-c2ccccc2)c2nc(C(=O)O)cc(OC[C@H](F)C3CCN(C)CC3)c12` [compound 380, 4-[(2R)-2-fluoro-2-(1-methylpiperidin-4-yl)ethoxy]-3-methyl-1-phenyl-1H-pyrazolo[3,4-b]pyridine-6-carboxylic acid], the “% Activation” value in test [1] (setting [3]) is recorded as 141.7%; in test [2] (setting [5]) it was 14.735%. Further, the 50% effective concentration (EC50) is 950 nM in test [1] (setting [4]) and 5010 nM in test [2] (setting [6]).
For `COCCN(CCOC)c1ccc(-c2cc(C(=O)O)nc3c2c(C(C)C)nn3-c2ccnc(N3CCOCC3)c2)cn1` [compound 524, 4-{6-[bis(2-methoxyethyl)amino]pyridin-3-yl}-1-[2-(morpholin-4-yl)pyridin-4-yl]-3-(propan-2-yl)-1H-pyrazolo[3,4-b]pyridine-6-carboxylic acid], the “% Activation” value is 354.25% in test [1] (setting [3]) and 134.7% in test [2] (setting [7]). Also, the concentration for a half-maximal effect (EC50) was 261 nM in test [1] (setting [4]) and 454 nM in test [2] (setting [8]).
In the case of `O=C(O)c1cc(NC[C@@H]2CCCO2)c2c(C3CCC3)nn(-c3ccccc3)c2n1` [compound 655, 3-cyclobutyl-4-({[(2S)-oxolan-2-yl]methyl}amino)-1-phenyl-1H-pyrazolo[3,4-b]pyridine-6-carboxylic acid], the EC50 in test [1] came out at 1130 nM; in test [2], 3100 nM. For the same molecule, the “% Activation” value in test [1] (setting [3]) is 340.2%; in test [2] (setting [7]) it was 165.6%.
Consider `COCCN(C)c1ccc(-c2cc(C(=O)O)nc3c2c(C(C)C)nn3C2CCCCC2)cc1` [compound 184, 1-cyclohexyl-4-{4-[(2-methoxyethyl)(methyl)amino]phenyl}-3-(propan-2-yl)-1H-pyrazolo[3,4-b]pyridine-6-carboxylic acid], for which the “% Activation” value in test [1] (setting [3]) came out at 377.4%; in test [2] (setting [5]), 170.25%. The 50% effective concentration (EC50) in test [1] (setting [4]) is 677 nM; in test [2] (setting [6]) it was 942 nM.
Taken in the same sequence, the figures for `Cc1nn(C2CCCCC2)c2nc(C(=O)O)cc(-c3cnc(N(C)C)nc3)c12` [compound 75, 1-cyclohexyl-4-[2-(dimethylamino)pyrimidin-5-yl]-3-methyl-1H-pyrazolo[3,4-b]pyridine-6-carboxylic acid] were 254%, 117.1%, 1150 nM and 3130 nM.
For `O=C(O)c1cc(N2CCC(N3CCOCC3)CC2)c2c(C3CCC3)nn(-c3ccc(F)c(F)c3)c2n1` [compound 907, 3-cyclobutyl-1-(3,4-difluorophenyl)-4-[4-(morpholin-4-yl)piperidin-1-yl]-1H-pyrazolo[3,4-b]pyridine-6-carboxylic acid], the results for the “% Activation” value in test [1] (setting [3]) and in test [2] (setting [7]) were 483.65% and 270.7%, respectively. Further, the EC50 in test [1] (setting [4]) came out at 183 nM; in test [2] (setting [8]) it was 260 nM.
With `O=C(O)c1cc(N2CCC(OCC(=O)N3CCCC3)CC2)c2c(C3CCC3)nn(-c3ccccc3)c2n1` [compound 367, 3-cyclobutyl-4-{4-[2-oxo-2-(pyrrolidin-1-yl)ethoxy]piperidin-1-yl}-1-phenyl-1H-pyrazolo[3,4-b]pyridine-6-carboxylic acid], the figures for the “% Activation” value in test [1] (setting [3]) and in test [2] (setting [5]) were 406.35% and 239.55%, respectively. Also, the values for the EC50 in test [1] (setting [4]) and in test [2] (setting [6]) were 669 nM and 1010 nM, respectively.
`O=C(O)c1cc(N2CCC(N3CC4CC3CO4)CC2)c2c(C3CCC3)nn(-c3ccc(F)cc3)c2n1` (stereo not shown) [compound 852, 3-cyclobutyl-1-(4-fluorophenyl)-4-[4-(2-oxa-5-azabicyclo[2.2.1]heptan-5-yl)piperidin-1-yl]-1H-pyrazolo[3,4-b]pyridine-6-carboxylic acid]: the “% Activation” value is given as 391.4% in test [1] (setting [3]) and 120.6% in test [2] (setting [7]). For the same molecule, the EC50 came to 3330 nM in test [1] (setting [4]) and 1710 nM in test [2] (setting [8]).
Taken in the same sequence, the figures for `O=C(O)c1cc(N2CCC(CN3CCN4C[C@@H](F)C[C@H]4C3)CC2)c2c(C3CCC3)nn(-c3ccccc3)c2n1` [compound 838, 3-cyclobutyl-4-(4-{[(7S,8aS)-7-fluorohexahydropyrrolo[1,2-a]pyrazin-2(1H)-yl]methyl]piperidin-1-yl)-1-phenyl-1H-pyrazolo[3,4-b]pyridine-6-carboxylic acid] were 411.8%, 240.3%, 115 nM and 269 nM.
As for `CC(C)c1nn(-c2ccc(F)cc2)c2nc(C(=O)O)cc(N3CC(N4CCOCC4)C3)c12` [compound 765, 1-(4-fluorophenyl)-4-[3-(morpholin-4-yl)azetidin-1-yl]-3-(propan-2-yl)-1H-pyrazolo[3,4-b]pyridine-6-carboxylic acid], the “% Activation” value in test [1] (setting [3]) is 181.3%; in test [2] (setting [7]), 45.48%. The EC50 in test [1] (setting [4]) stood at 738 nM; in test [2] (setting [8]), 1670 nM.
The like results for `CN(c1cc(C(=O)O)nc2c1c(C1CCC1)nn2-c1ccccc1)[C@H]1C[C@@H](OC(C)(C)C)C1` [compound 439, 4-[(cis-3-tert-butoxycyclobutyl)(methyl)amino]-3-cyclobutyl-1-phenyl-1H-pyrazolo[3,4-b]pyridine-6-carboxylic acid] were, in that order, 312.85%, 120.85%, 1110 nM and 1120 nM.
Taken in the same sequence, the figures for `CC(C)Oc1cc(-n2nc(C3CCC3)c3c(N4CCC(N5CCOCC5)CC4)cc(C(=O)O)nc32)ccn1` [compound 855, 3-cyclobutyl-4-[4-(morpholin-4-yl)piperidin-1-yl]-1-{2-[(propan-2-yl)oxy]pyridin-4-yl}-1H-pyrazolo[3,4-b]pyridine-6-carboxylic acid] were 490.9%, 304.2%, 87.2 nM and 197 nM.
On to `CC(C)(C)OC(=O)N1CCCC1c1nn(-c2ccccc2)c2nc(C(=O)O)cc(-c3ccc(N4CCOCC4)nc3)c12` (stereo not shown) [compound 103, 3-[1-(tert-butoxycarbonyl)pyrrolidin-2-yl]-4-[6-(morpholin-4-yl)pyridin-3-yl]-1-phenyl-1H-pyrazolo[3,4-b]pyridine-6-carboxylic acid], for which the “% Activation” value is listed as 302% in test [1] (setting [3]) and 115.65% in test [2] (setting [5]). Further, the EC50 was 694 nM in test [1] (setting [4]) and 703 nM in test [2] (setting [6]).
For the molecule `O=C(O)c1cc(N2CCC(N3CCOCC3)CC2)c2c(C3CCC3)nn(-c3ccc(C(F)(F)F)cc3)c2n1` [compound 823, 3-cyclobutyl-4-[4-(morpholin-4-yl)piperidin-1-yl]-1-[4-(trifluoromethyl)phenyl]-1H-pyrazolo[3,4-b]pyridine-6-carboxylic acid], the “% Activation” value came out at 375.2% in test [1] (setting [3]) and 188.7% in test [2] (setting [7]). Besides, the EC50 worked out at 147 nM in test [1] (setting [4]) and 258 nM in test [2] (setting [8]).
`CC(C)c1nn(C2CCC(F)(F)CC2)c2nc(C(=O)O)cc(-c3ccc(N4CCOCC4)cc3)c12` [compound 159, 1-(4,4-difluorocyclohexyl)-4-[4-(morpholin-4-yl)phenyl]-3-(propan-2-yl)-1H-pyrazolo[3,4-b]pyridine-6-carboxylic acid]: the “% Activation” value in test [1] (setting [3]) amounted to 415.33%; in test [2] (setting [5]), 150.16%. In addition, the EC50 in test [1] (setting [4]) turned out to be 755 nM; in test [2] (setting [6]) it was 737 nM.
As for `COCC1CN(CC2CCN(c3cc(C(=O)O)nc4c3c(C3CCC3)nn4-c3ccccc3)CC2)C1` [compound 831, 3-cyclobutyl-4-(4-{[3-(methoxymethyl)azetidin-1-yl]methyl}piperidin-1-yl)-1-phenyl-1H-pyrazolo[3,4-b]pyridine-6-carboxylic acid], the results for the “% Activation” value in test [1] (setting [3]) and in test [2] (setting [7]) were 402.5% and 231.3%, respectively. Moreover, the values for the EC50 in test [1] (setting [4]) and in test [2] (setting [8]) were 407 nM and 1460 nM, respectively.
For the molecule `O=C(O)c1cc(N2CCC(N3CCOCC3)CC2)c2c(C3CCC3)nn(-c3ccnc(OCC4CCOCC4)c3)c2n1` [compound 919, 3-cyclobutyl-4-[4-(morpholin-4-yl)piperidin-1-yl]-1-{2-[(oxan-4-yl)methoxy]pyridin-4-yl}-1H-pyrazolo[3,4-b]pyridine-6-carboxylic acid], the “% Activation” value in test [1] (setting [3]) was found to be 416.35%; in test [2] (HRP-tagged ΔF508-CFTR CFBE cells, compound alone (intrinsic corrector capacity), 20 hours at 33° C.), 198.2%. In addition, the EC50 in test [1] (setting [4]) was determined as 256 nM; in test [2] (HRP-tagged ΔF508-CFTR CFBE cells, compound alone (intrinsic corrector capacity), 20 hours at 33° C., read-out: EC50), 490 nM.
As for `O=C(O)c1cc(OC[C@@H]2CCCO2)c2c(C3CCC3)nn(-c3ccccc3)c2n1` [compound 480, 3-cyclobutyl-4-{[(2S)-oxolan-2-yl]methoxy}-1-phenyl-1H-pyrazolo[3,4-b]pyridine-6-carboxylic acid], the “% Activation” value in test [1] (setting [3]) came out at 270.4%; in test [2] (setting [7]), 115.15%. In addition, the EC50 in test [1] (setting [4]) turned out to be 364 nM; in test [2] (setting [8]), 862 nM.
The like results for `O=C(O)c1cc(N2CCC(CN3CC4CC4C3)CC2)c2c(C3CCC3)nn(-c3ccccc3)c2n1` (stereo not shown) [compound 844, 4-{4-[(3-azabicyclo[3.1.0]hexan-3-yl)methyl]piperidin-1-yl}-3-cyclobutyl-1-phenyl-1H-pyrazolo[3,4-b]pyridine-6-carboxylic acid] were, in that order, 429.2%, 184.9%, 206 nM and 210 nM.
